Measured values as given in patent publication US20230278972A1, “SUBSTITUTED HALOALKYL SULFONANILIDE HERBICIDES” (FMC Corporation, priority 2020, published 2023).

Experiments:
Assay type in all cases: in vivo
[1] = system: barnyardgrass (Echinochloa crus-galli); assay: Test A preemergence, barnyardgrass; conditions: Preemergence; for Plant response rating, Barnyardgrass: 0 to 100 scale (0 no effect, 100 complete control)
Summary of the method: (§1)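 Compounds in non-phytotoxic solvent with surfactant. Soil: loam/sand. Preemergence via directed soil spray after seeding; postemergence on seedlings 2–10 cm, one- to two-leaf.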

kochia (Bassia scoparia) [2] = assay: Test A preemergence, kochia; conditions: Preemergence; for Plant response rating, Kochia: 0 to 100 scale (0 no effect, 100 complete control); for Kochia plant response rating: visual injury on 0 to 100 scale (0 no effect, 100 complete control), approximately 10 days
Summary of the method: as §1

[3] = system: ragweed (common ragweed, Ambrosia artemisiifolia); assay: Test A preemergence, ragweed; conditions: Preemergence; for Plant response rating, Ragweed: 0 to 100 scale (0 no effect, 100 complete control); for Ragweed plant response rating: visual injury on 0 to 100 scale (0 no effect, 100 complete control), approximately 10 days
Summary of the method: as §1

[4] = system: Ryegrass, Italian (Italian ryegrass, Lolium multiflorum); assay: Test A preemergence, Ryegrass, Italian; conditions: Preemergence; for Plant response rating, Ryegrass, Italian: 0 to 100 scale (0 no effect, 100 complete control); for Ryegrass, Italian plant response rating: visual injury on 0 to 100 scale (0 no effect, 100 complete control), approximately 10 days
Summary of the method: as §1

[5] = system: Foxtail, Giant (giant foxtail, Setaria faberi); assay: Test A preemergence, Foxtail, Giant; conditions: Preemergence; for Plant response rating, Foxtail, Giant: 0 to 100 scale (0 no effect, 100 complete control); for Foxtail, Giant plant response rating: visual injury on 0 to 100 scale (0 no effect, 100 complete control), approximately 10 days
Summary of the method: as §1

[6] = system: pigweed (Amaranthus retroflexus); assay: Test A preemergence, pigweed; conditions: for Plant response rating, Pigweed: 0 to 100 scale (0 no effect, 100 complete control); for Pigweed plant response rating: visual injury on 0 to 100 scale (0 no effect, 100 complete control), approximately 10 days
Summary of the method: (§2)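 Postemergence ratings come from foliar sprays onto one- to two-leaf plants of 2 to 10 cm grown in loam/sand; preemergence ratings come from a directed spray onto the soil of newly seeded pots. Formulation was a surfactant-containing non-phytotoxic solvent blend.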

[7] = system: barnyardgrass (Echinochloa crus-galli); assay: Test A postemergence, barnyardgrass; conditions: Postemergence, 0 to 100 scale (0 no effect, 100 complete control); for Barnyardgrass plant response rating: 500 g ai/ha, visual injury vs untreated controls after approx. 10 days
Summary of the method: as §2

kochia (Bassia scoparia) [8] = assay: Test A postemergence, kochia; conditions: Postemergence, 0 to 100 scale (0 no effect, 100 complete control); for Kochia plant response rating: 500 g ai/ha, visual injury vs untreated controls after approx. 10 days
Summary of the method: as §1

[9] = system: ragweed (common ragweed, Ambrosia artemisiifolia); assay: Test A postemergence, ragweed; conditions: Postemergence, 0 to 100 scale (0 no effect, 100 complete control); for Ragweed plant response rating: 500 g ai/ha, visual injury vs untreated controls after approx. 10 days
Summary of the method: as §1

[10] = system: Ryegrass, Italian (Italian ryegrass, Lolium multiflorum); assay: Test A postemergence, Ryegrass, Italian; conditions: Postemergence, 0 to 100 scale (0 no effect, 100 complete control); for Ryegrass, Italian plant response rating: 500 g ai/ha, visual injury vs untreated controls after approx. 10 days
Summary of the method: as §1

[11] = system: Foxtail, Giant (giant foxtail, Setaria faberi); assay: Test A postemergence, Foxtail, Giant; conditions: Postemergence, 0 to 100 scale (0 no effect, 100 complete control); for Foxtail, Giant plant response rating: 500 g ai/ha, visual injury vs untreated controls after approx. 10 days
Summary of the method: as §1

[12] = system: pigweed (Amaranthus retroflexus); assay: Test A postemergence, pigweed; conditions: Postemergence, 0 to 100 scale (0 no effect, 100 complete control); for Pigweed plant response rating: 500 g ai/ha, visual injury vs untreated controls after approx. 10 days
Summary of the method: as §1

[13] = system: wheat (Triticum aestivum); assay: Test A postemergence, wheat; conditions: Postemergence, 0 to 100 scale (0 no effect, 100 complete control); for Wheat plant response rating: 500 g ai/ha, visual injury vs untreated controls after approx. 10 days
Summary of the method: as §2

corn (Zea mays) = assay: Test A postemergence, corn; conditions: Postemergence, 0 to 100 scale (0 no effect, 100 complete control); for Corn plant response rating: 500 g ai/ha, visual injury vs untreated controls after approx. 10 days
Summary of the method: as §1

[14] = system: blackgrass (Alopecurus myosuroides); assay: Test A postemergence, blackgrass; conditions: Postemergence, 0 to 100 scale (0 no effect, 100 complete control); for Blackgrass plant response rating: 500 g ai/ha, visual injury vs untreated controls after approx. 10 days
Summary of the method: as §1

[15] = system: galium (catchweed bedstraw, Galium aparine); assay: Test A postemergence, galium; conditions: Postemergence, 0 to 100 scale (0 no effect, 100 complete control); for Galium plant response rating: 500 g ai/ha, visual injury vs untreated controls after approx. 10 days
Summary of the method: as §2

[16] = 125 g ai/ha, visual injury, approx. 10 days
[17] = 31 g ai/ha, visual injury, approx. 10 days
[18] = 125 g ai/ha, visual injury approx. 10 days

SMILES: Cc1cc(C)c(C(=O)N2CCC(S(C)(=O)=O)CC2)cc1NS(=O)(=O)C(F)(F)F [Compound 233]
- Plant response rating, Barnyardgrass [1, 16]: 0
- Plant response rating, Barnyardgrass ([1]; 500 g ai/ha): 30
- Plant response rating, Kochia (kochia (Bassia scoparia) [2]; [16]): 0
- Kochia plant response rating (kochia (Bassia scoparia) [2]; 500 g ai/ha): 80
- Plant response rating, Ragweed [3, 16]: 0
- Ragweed plant response rating ([3]; 500 g ai/ha): 30
- Plant response rating, Ryegrass, Italian [4, 16]: 20
- Ryegrass, Italian plant response rating ([4]; 500 g ai/ha): 70
- Plant response rating, Foxtail, Giant [5, 16]: 40
- Foxtail, Giant plant response rating ([5]; 500 g ai/ha): 100
- Plant response rating, Pigweed [6, 16]: 60
- Pigweed plant response rating ([6]; 500 g ai/ha): 90
- Plant response rating, Barnyardgrass ([7]; 125 g ai/ha): 0
- Barnyardgrass plant response rating [7]: 0
- Plant response rating, Kochia (kochia (Bassia scoparia) [8]; 125 g ai/ha): 0
- Kochia plant response rating (kochia (Bassia scoparia) [8]): 30
- Plant response rating, Ragweed ([9]; 125 g ai/ha): 0
- Ragweed plant response rating [9]: 0
- Plant response rating, Ryegrass, Italian ([10]; 125 g ai/ha): 0
- Ryegrass, Italian plant response rating [10]: 0
- Plant response rating, Foxtail, Giant ([11]; 125 g ai/ha): 0
- Foxtail, Giant plant response rating [11]: 0
- Plant response rating, Pigweed ([12]; 125 g ai/ha): 30
- Pigweed plant response rating [12]: 60
- Plant response rating, Wheat ([13]; 125 g ai/ha): 0
- Wheat plant response rating [13]: 40
- Plant response rating, Corn (corn (Zea mays); 125 g ai/ha): 0
- Corn plant response rating (corn (Zea mays)): 0
- Plant response rating, Blackgrass ([14]; 125 g ai/ha): 0
- Blackgrass plant response rating [14]: 40
- Plant response rating, Galium ([15]; 125 g ai/ha): 80
- Galium plant response rating [15]: 90

SMILES: Cc1cc(F)c(C(=O)N(C)C)cc1N(S(=O)(=O)C(F)(F)F)S(=O)(=O)C(F)(F)F [Compound 216]
- Plant response rating, Barnyardgrass [1, 16]: 40
- Plant response rating, Barnyardgrass ([1]; 500 g ai/ha): 80
- Plant response rating, Kochia (kochia (Bassia scoparia) [2]; [16]): 100
- Plant response rating, Kochia (kochia (Bassia scoparia) [2]; 500 g ai/ha): 90
- Plant response rating, Ragweed [3, 16]: 0
- Plant response rating, Ragweed ([3]; 500 g ai/ha): 30
- Plant response rating, Ryegrass, Italian [4, 16]: 30
- Plant response rating, Ryegrass, Italian ([4]; 500 g ai/ha): 90
- Plant response rating, Foxtail, Giant [5, 16]: 20
- Plant response rating, Foxtail, Giant ([5]; 500 g ai/ha): 90
- Plant response rating, Pigweed [6, 16]: 80
- Plant response rating, Pigweed ([6]; 500 g ai/ha): 100
- Plant response rating, Barnyardgrass ([7]; 125 g ai/ha): 0
- Barnyardgrass plant response rating [7]: 50
- Plant response rating, Kochia (kochia (Bassia scoparia) [8]; 125 g ai/ha): 20
- Kochia plant response rating (kochia (Bassia scoparia) [8]): 30
- Plant response rating, Ragweed ([9]; 125 g ai/ha): 10
- Ragweed plant response rating [9]: 60
- Plant response rating, Ryegrass, Italian ([10]; 125 g ai/ha): 0
- Ryegrass, Italian plant response rating [10]: 70
- Plant response rating, Foxtail, Giant ([11]; 125 g ai/ha): 0
- Foxtail, Giant plant response rating [11]: 20
- Plant response rating, Pigweed ([12]; 125 g ai/ha): 30
- Pigweed plant response rating [12]: 70
- Plant response rating, Wheat ([13]; 125 g ai/ha): 0
- Wheat plant response rating [13]: 70
- Plant response rating, Corn (corn (Zea mays); 125 g ai/ha): 30
- Corn plant response rating (corn (Zea mays)): 40
- Plant response rating, Blackgrass ([14]; 125 g ai/ha): 0
- Blackgrass plant response rating [14]: 30
- Plant response rating, Galium ([15]; 125 g ai/ha): 50
- Galium plant response rating [15]: 70

SMILES: Cc1cc(C)c(C2=NOC(C)(C)C2)cc1NS(=O)(=O)C(F)(F)F [Compound 206]
- Plant response rating, Barnyardgrass [1, 16]: 90
- Plant response rating, Barnyardgrass ([1]; 500 g ai/ha): 90
- Plant response rating, Kochia (kochia (Bassia scoparia) [2]; [16]): 80
- Plant response rating, Kochia (kochia (Bassia scoparia) [2]; 500 g ai/ha): 90
- Plant response rating, Ragweed [3, 16]: 40
- Plant response rating, Ragweed ([3]; 500 g ai/ha): 80
- Plant response rating, Ryegrass, Italian [4, 16]: 80
- Plant response rating, Ryegrass, Italian ([4]; 500 g ai/ha): 90
- Plant response rating, Foxtail, Giant [5, 16]: 80
- Plant response rating, Foxtail, Giant ([5]; 500 g ai/ha): 90
- Plant response rating, Pigweed [6, 16]: 90
- Plant response rating, Pigweed ([6]; 500 g ai/ha): 100
- Plant response rating, Barnyardgrass ([7]; 125 g ai/ha): 60
- Barnyardgrass plant response rating [7]: 80
- Plant response rating, Kochia (kochia (Bassia scoparia) [8]; 125 g ai/ha): 20
- Kochia plant response rating (kochia (Bassia scoparia) [8]): 70
- Plant response rating, Ragweed ([9]; 125 g ai/ha): 60
- Ragweed plant response rating [9]: 90
- Plant response rating, Ryegrass, Italian ([10]; 125 g ai/ha): 50
- Ryegrass, Italian plant response rating [10]: 90
- Plant response rating, Foxtail, Giant ([11]; 125 g ai/ha): 50
- Foxtail, Giant plant response rating [11]: 60
- Plant response rating, Pigweed ([12]; 125 g ai/ha): 60
- Pigweed plant response rating [12]: 70
- Plant response rating, Wheat ([13]; 125 g ai/ha): 60
- Wheat plant response rating [13]: 80
- Plant response rating, Corn (corn (Zea mays); 125 g ai/ha): 0
- Corn plant response rating (corn (Zea mays)): 70
- Plant response rating, Blackgrass ([14]; 125 g ai/ha): 50
- Blackgrass plant response rating [14]: 50
- Plant response rating, Galium ([15]; 125 g ai/ha): 70
- Galium plant response rating [15]: 80

SMILES: CSc1cc(-c2cc(NS(=O)(=O)C(F)(F)F)c(C)cc2C)c(=O)n(C)n1 [Compound 36]
- Plant response rating, Barnyardgrass [1, 17]: 0
- Barnyardgrass plant response rating ([1]; 125 g ai/ha, visual injury on 0 to 100 scale (0 no effect, 100 complete control), approximately 10 days): 50
- Plant response rating, Kochia (kochia (Bassia scoparia) [2]; [17]): 0
- Kochia plant response rating (kochia (Bassia scoparia) [2]; 125 g ai/ha): 0
- Plant response rating, Ragweed [3, 17]: 0
- Ragweed plant response rating ([3]; 125 g ai/ha): 0
- Plant response rating, Ryegrass, Italian [4, 17]: 0
- Ryegrass, Italian plant response rating ([4]; 125 g ai/ha): 60
- Plant response rating, Foxtail, Giant [5, 17]: 20
- Foxtail, Giant plant response rating ([5]; 125 g ai/ha): 80
- Plant response rating, Pigweed [6, 17]: 0
- Pigweed plant response rating ([6]; 125 g ai/ha): 10
- Plant response rating, Barnyardgrass ([7]; 31 g ai/ha): 0
- Plant response rating, Barnyardgrass [7, 18]: 0
- Plant response rating, Kochia (kochia (Bassia scoparia) [8]; 31 g ai/ha): 10
- Plant response rating, Kochia (kochia (Bassia scoparia) [8]; [18]): 20
- Plant response rating, Ragweed ([9]; 31 g ai/ha): 0
- Plant response rating, Ragweed [9, 18]: 0
- Plant response rating, Ryegrass, Italian ([10]; 31 g ai/ha): 20
- Plant response rating, Ryegrass, Italian [10, 18]: 10
- Plant response rating, Foxtail, Giant ([11]; 31 g ai/ha): 0
- Plant response rating, Foxtail, Giant [11, 18]: 0
- Plant response rating, Pigweed ([12]; 31 g ai/ha): 0
- Plant response rating, Pigweed [12, 18]: 30
- Plant response rating, Wheat ([13]; 31 g ai/ha): 0
- Plant response rating, Wheat [13, 18]: 50
- Plant response rating, Corn (corn (Zea mays); 31 g ai/ha): 0
- Plant response rating, Corn (corn (Zea mays); [18]): 0
- Plant response rating, Blackgrass ([14]; 31 g ai/ha): 0
- Plant response rating, Blackgrass [14, 18]: 0
- Plant response rating, Galium ([15]; 31 g ai/ha): 20
- Plant response rating, Galium [15, 18]: 40
